Reference: patent publication US11607421B2, “Ethanolamine-based lipid biosynthetic compounds, method of making and use thereof” (Metanoi Therapeutics, Inc., priority 2016, dated 2023)

Key:
[1] = Pharmacokinetic studies, single oral and intravenous dose; format: in vivo, BALB/c mice
Experimental: (§1) Samples (100 μl) were drawn at 0, 15, 30 and 60 min from SGF reaction-vials and at 0, 30, 60 and 120 min from SIF reaction-vials, quenched with acetonitrile, vortex-mixed, and centrifuged before supernatant analysis by LC-MS/MS analysis. […] For PK studies, a sparse sampling design with 3 mice per time point was used to collect blood samples at 5, 10, 15, 30 min and 1, 2, 3, 4, 5 and 6 h in K2EDTA-coated tubes. The pharmacokinetic parameters (AUClast, Cmax, CL and Vss) were calculated using non-compartmental analysis tool of Phoenix WinNonlin software (version 6.3).
Nine animals per group were used for PK studies. A sparse sampling design was used to collect blood samples from animals at 5 min, 10 min, 15 min, 30 min, 1, 2, 3, 4, 5, and 6 h in K2EDTA coated tubes. Plasma was collected from blood by centrifugation of samples at 8000 g for 10 min. Plasma samples were stored below −60° C. until further analysis.
PK parameters were calculated from the concentration-time data using the non-compartmental analysis tool of Phoenix WinNolin® software (version 6.3, Pharsight, St Louis, Mo.). The area under the concentration time curve (AUClast) was calculated by the linear trapezoidal rule. Following oral administration, peak concentration (Cmax) and time for the peak concentration (Tmax) were the observed values. The clearance (CL) and volume of distribution (Vss) were estimated following IV dose administration. The elimination rate constant value (k) was obtained by linear regression of the log-linear terminal phase of the concentration-time profile using at least three declining concentrations in terminal phase with a correlation coefficient of >0.8. The terminal half-life value (T1/2) was calculated using the equation ln 2/k. Oral bioavailability was calculated by taking the ratio of dose normalized AUClast following oral administration to IV administration.

PC-3 cells = experiment: Annexin V binding assay (flow cytometry); format: cell-based, human; conditions: 2.0 mg/ml Etn
Experimental: Annexin V binding assays were performed for control and 2.0 mg/ml Etn-treated cells along with counterstaining with 7-AAD to distinguish between dead and apoptotic cells. Annexin V positive cells were analyzed using flow cytometry. Representative scatter plots for control and Etn-treated cells stained with 7-AAD and annexin V are shown.
Annexin-V is known to bind to phosphatidylserine (PS) lipids which flip to the outer leaflet of plasma membrane in apoptotic cells (Vermes I. et al., J. Immunol. Methods, 1995, vol. 184, pp. 39-51). Annexin-V binding to PS is therefore a good indicator of cells undergoing apoptosis.

CYP2E1 = CYP2E1 (Homo sapiens, UniProt P05181); experiment: CYP inhibition in human liver microsomes
PC-3-luc tumors = experiment: Glucose and glutamine contents in tumors (LC-MS/MS); conditions: 40 mg/kg Etn-treated tumors vs untreated control
[2] = system: p21, PARP1, Bcl-2, HIF1-α, Bax and Bid; experiment: Real time-PCR transcription levels; format: cell-based, human; conditions: PC-3 cells, 2 mg/ml Etn for 48 h
Experimental: (§2) OCR was measured using an oxygen electrode.
(§3) To test this hypothesis, HIF1-α expression levels were analyzed in Etn-treated tumors and PC-3 cells. […] DMOG, an HIF1-α activator, was then employed to test whether Etn-mediated cell death in PC-3 cells was associated with HIF1-α stabilization (active HIF1-α signaling).
RNA was extracted from control and 2 mg/ml Etn-treated PC-3 cells using a RNeasy kit from Qiagen (Hilden, Germany), and quantified using NanoDrop. Reverse transcription of RNA was performed for the first strand cDNA synthesis using a first strand synthesis kit (GoScript™ Reverse Transcription System-A5000) from Promega (Madison, Wis.). The quality of synthesized cDNAs was checked on an agarose gel. RT-PCR of cDNA samples (in duplicates) was performed using iQ™ SYBR® Green Supermix from Bio-Rad (Hercules, Calif.) as per manufacturer's instructions. The RT-PCR primers were designed manually, checked with the primer3 software and ordered from Sigma (St Louis, Mo.).

RWPE-1 = experiment: MTT cell proliferation assay, normal prostate cells; format: cell-based; conditions: 0.5 mg/ml Etn, 48 h
Experimental: After 48 h, drug containing medium was replaced by medium containing MTT (tetrazolium bromide) at a concentration of 0.5 mg/ml. The yellow tetrazolium salt is reduced to insoluble purple formazan by viable cells. After 4 h of incubation in dark, formazan crystals produced by viable cells were dissolved by 200 μl DMSO and the amount of formazan crystals formed was quantified by recording the absorbance at 570 nm using multi-well plate reader. […] After 10 days, colonies were fixed with 4% formaldehyde, stained with crystal violet and counted.

[3] = system: p53, p21, Bax, pBcl-2, c-PARP, Bim, Bid, HIF1-α; experiment: Immunoblot of PC-3-luc tumor lysates; format: in vivo, mice
Experimental: as §2
Since p21, Bax and pBcl2 are downstream effectors of p53, p53 expression levels were examined in control and Etn-treated tumors, as well as control and Etn-treated PC-3 cells.
as §3
Proteins were resolved by polyacrylamide gel electrophoresis and transferred onto polyvinylidene difluoride membranes (Millipore, Billerica, Mass., USA). The membranes were blocked in Tris-buffered saline containing 0.05% Tween-20 and 5% fat-free dry milk and incubated first with primary antibodies and then with horseradish peroxidase-conjugated secondary antibodies. Specific proteins were visualized with enhanced chemiluminescence detection reagent according to the manufacturer's instructions (Pierce Biotechnology, Rockford, Ill., USA).

[4] = Stability in simulated gastric fluid (SGF); format: in vitro ADME; conditions: 10 μM, SGF pH 1.2, over 1 h
Experimental: as §1
Given the extreme pH and various digestive enzymes, the GI tract presents a harsh environment to any ingested xenobiotic. Thus, many potential drug candidates are degraded in the GI tract, explaining their decreased bioavailability or inability to reach the target at effective concentrations. Simulated gastric fluid (SGF; pH 1.2) and simulated intestinal fluid (SIF; pH 6.8) closely mimic the GI tract environment and are amenable in vitro systems to evaluate degradation of a compound in GI tract (US Pharmacopoia).
Simulated gastric fluid was prepared as per U.S. Pharmacopeia (USP) methods. Sodium chloride (2 g) and pepsin (3.2 g, from porcine stomach mucosa) were dissolved in 7.0 ml hydrochloric acid and Milli-Q water to make up the volume to 1000 ml and the pH was adjusted to 1.2. […]

Sequence of CYP2E1 (P05181 whole entry): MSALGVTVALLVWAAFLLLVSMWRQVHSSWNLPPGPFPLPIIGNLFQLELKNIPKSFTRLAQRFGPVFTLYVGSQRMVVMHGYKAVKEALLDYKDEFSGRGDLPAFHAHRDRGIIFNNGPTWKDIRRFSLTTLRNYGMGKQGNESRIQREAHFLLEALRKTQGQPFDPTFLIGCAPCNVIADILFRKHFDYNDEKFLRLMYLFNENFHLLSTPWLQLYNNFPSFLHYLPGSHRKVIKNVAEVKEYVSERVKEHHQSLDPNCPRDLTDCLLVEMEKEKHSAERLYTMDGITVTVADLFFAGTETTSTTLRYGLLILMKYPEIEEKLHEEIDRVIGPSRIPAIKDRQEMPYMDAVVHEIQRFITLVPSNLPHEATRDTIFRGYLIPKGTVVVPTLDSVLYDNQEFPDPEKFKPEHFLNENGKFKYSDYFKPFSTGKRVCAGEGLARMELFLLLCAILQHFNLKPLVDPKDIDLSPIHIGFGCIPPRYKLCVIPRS

SMILES: NCCO [Etn, monoethanolamine]
- AUClast of Etn compared to PhosE ([1]; oral 40 mg/kg Etn): 13 fold
- Cmax of Etn compared to PhosE ([1]; oral 40 mg/kg Etn): 32 fold
- time to reach peak plasma concentration ([1]; oral Etn administration, analyte Etn): 10 min
- annexin-V positive cells (PC-3 cells): ~25%
- IC50 (CYP2E1): > 100 µM
- glucose and glutamine contents (PC-3-luc tumors): significantly reduced
- reduction in HIF1-α transcript levels compared to control cells [2]: 50 fold
- transcription levels of cell-cycle and apoptosis regulators [2]: upregulated p21, PARP1, Bax and Bid, and downregulated Bcl-2
- reduction of survival (RWPE-1): remained unaffected
- expression of cell-cycle and apoptotic markers in tumor lysates ([3]; 40 mg/kg Etn-treated mice): upregulated p21, Bax, pBcl2 c-PARP, Bim and Bid
- p53 protein level in tumors ([3]; 40 mg/kg Etn-treated mice): higher levels of p53 protein than untreated control tumors
- HIF1-α protein expression in tumors ([3]; Etn-treated tumors relative to untreated control tumors): Downregulation of HIF1-α protein expression
- stability in SGF [4]: stable
